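All cell lines were grown in 96-well plates and treated with compound for 48 hours. GI50: concentration for 50% inhibition of growth.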 Active and inactive are the calls of the source. Cut-off read from the data, not from the text of the source: active = GI50 up to about 1.1 µM and inactive = higher.
Key:
Experiment in all cases: DTP human tumour cell line panel, 48 h
[1] = system: SF-295
[2] = system: COLO 205
[3] = system: SK-MEL-28
[4] = system: IGROV-1
[5] = system: MOLT-4
[6] = system: HOP-62
[7] = system: HCT-116
[8] = system: SN12C
[9] = system: HT-29
[10] = system: NCI-H522
[11] = system: RPMI-8226
[12] = system: K562
[13] = system: OVCAR-8
[14] = system: CCRF-CEM
[15] = system: UO-31
[16] = system: RXF 393
[17] = system: NCI/ADR-RES
[18] = system: SF-539

O=C(NCc1ccccc1)c1cc2ccccc2o/c1=N\c1cccc(C(F)(F)F)c1
GI50 [1]: 51.3 µM (inactive)
GI50 [2]: 29.3 µM (inactive)
GI50 [3]: > 100 µM (inactive)
GI50 [4]: 81.3 µM (inactive)
GI50 [5]: 23.4 µM (inactive)
GI50 [6]: 85.3 µM (inactive)
GI50 [7]: 55.6 µM (inactive)
GI50 [8]: 29.3 µM (inactive)
GI50 [9]: 35.9 µM (inactive)
GI50 [10]: 39 µM (inactive)
GI50 [11]: 30.3 µM (inactive)
GI50 [12]: 36.5 µM (inactive)
GI50 [13]: 56.1 µM (inactive)
GI50 [14]: 45.1 µM (inactive)
GI50 [15]: 79.1 µM (inactive)
GI50 [16]: 78 µM (inactive)
GI50 [17]: 47.1 µM (inactive)

COC1=C(OC)C(=O)C(C/C=C/c2c(Cl)nc3sccn23)=C(C)C1=O
GI50 [1]: 2.1 µM (inactive)
GI50 [2]: 16.9 µM (inactive)
GI50 [3]: 17.9 µM (inactive)
GI50 [4]: 17.4 µM (inactive)
GI50 [5]: 1.69 µM (inactive)
GI50 [6]: 16.8 µM (inactive)
GI50 [7]: 12.8 µM (inactive)
GI50 [8]: 16.6 µM (inactive)
GI50 [9]: 20.7 µM (inactive)
GI50 [10]: 15.1 µM (inactive)
GI50 [11]: 4.35 µM (inactive)
GI50 [12]: 19.8 µM (inactive)
GI50 [13]: 10.4 µM (inactive)
GI50 [14]: 1.85 µM (inactive)
GI50 [15]: 18.7 µM (inactive)
GI50 [18]: 17.2 µM (inactive)
GI50 [16]: 18.4 µM (inactive)
GI50 [17]: 5.58 µM (inactive)

CC(C)=c1sc(=C(C)C)c2c1=NC(C)(C)N=2
GI50 [1]: 75.5 µM (inactive)
GI50 [2]: 87.3 µM (inactive)
GI50 [3]: 73.6 µM (inactive)
GI50 [4]: 42.1 µM (inactive)
GI50 [5]: 42.4 µM (inactive)
GI50 [6]: > 100 µM (inactive)
GI50 [7]: 50.5 µM (inactive)
GI50 [8]: 58.5 µM (inactive)
GI50 [9]: 74.6 µM (inactive)
GI50 [10]: 32.9 µM (inactive)
GI50 [11]: 37.2 µM (inactive)
GI50 [13]: 94 µM (inactive)
GI50 [14]: 44.3 µM (inactive)
GI50 [18]: > 100 µM (inactive)
GI50 [16]: > 100 µM (inactive)
GI50 [17]: > 100 µM (inactive)

CC(=O)/C(=C\n1c(=S)[nH]c2ccc([N+](=O)[O-])cc21)C(=O)Nc1ccccc1C
GI50 [1]: > 100 µM (inactive)
GI50 [2]: > 100 µM (inactive)
GI50 [3]: > 100 µM (inactive)
GI50 [4]: > 100 µM (inactive)
GI50 [5]: > 100 µM (inactive)
GI50 [6]: > 100 µM (inactive)
GI50 [7]: > 100 µM (inactive)
GI50 [8]: > 100 µM (inactive)
GI50 [9]: > 100 µM (inactive)
GI50 [10]: > 100 µM (inactive)
GI50 [11]: > 100 µM (inactive)
GI50 [12]: > 100 µM (inactive)
GI50 [13]: > 100 µM (inactive)
GI50 [14]: > 100 µM (inactive)
GI50 [18]: 8.26 µM (inactive)
GI50 [16]: > 100 µM (inactive)
GI50 [17]: > 100 µM (inactive)

CN1CSC(=S)N(c2c3ccccc3nc3ccc(Br)cc23)C1
GI50 [1]: 6.7 µM (inactive)
GI50 [2]: 6.43 µM (inactive)
GI50 [3]: 16.9 µM (inactive)
GI50 [4]: 10.8 µM (inactive)
GI50 [5]: 0.783 µM (active)
GI50 [6]: 7.87 µM (inactive)
GI50 [7]: 4.28 µM (inactive)
GI50 [8]: 5.31 µM (inactive)
GI50 [9]: 5.42 µM (inactive)
GI50 [10]: 4.4 µM (inactive)
GI50 [11]: 7.71 µM (inactive)
GI50 [12]: 2.32 µM (inactive)
GI50 [13]: 7.93 µM (inactive)
GI50 [14]: 4.08 µM (inactive)
GI50 [15]: 9.06 µM (inactive)
GI50 [18]: 11.6 µM (inactive)
GI50 [16]: 11.9 µM (inactive)
GI50 [17]: 7.67 µM (inactive)

O=C(NC(=S)Nc1ccc2c(c1)Sc1ccccc1O2)c1ccccc1
GI50 [1]: 24.3 µM (inactive)
GI50 [2]: 38.8 µM (inactive)
GI50 [3]: 22.2 µM (inactive)
GI50 [4]: 29.6 µM (inactive)
GI50 [5]: 27.8 µM (inactive)
GI50 [6]: 27.4 µM (inactive)
GI50 [7]: 41 µM (inactive)
GI50 [8]: 50.1 µM (inactive)
GI50 [9]: 35.4 µM (inactive)
GI50 [10]: 31.8 µM (inactive)
GI50 [11]: 51.3 µM (inactive)
GI50 [12]: 6.27 µM (inactive)
GI50 [13]: 34.4 µM (inactive)
GI50 [14]: 23 µM (inactive)
GI50 [15]: > 100 µM (inactive)
GI50 [18]: 22.6 µM (inactive)
GI50 [16]: 20.4 µM (inactive)
GI50 [17]: 39.9 µM (inactive)

CCOP(=O)(C[S+](C)[O-])O[C@@H]1C[C@H](C)CC[C@H]1C(C)C (stereo partly specified)
GI50 [1]: 5.6 µM (inactive)
GI50 [2]: 6.19 µM (inactive)
GI50 [3]: > 100 µM (inactive)
GI50 [4]: 3.25 µM (inactive)
GI50 [5]: 5.18 µM (inactive)
GI50 [6]: 5.53 µM (inactive)
GI50 [7]: 2.75 µM (inactive)
GI50 [8]: 0.434 µM (active)
GI50 [10]: 2.26 µM (inactive)
GI50 [11]: 1.85 µM (inactive)
GI50 [12]: 3.4 µM (inactive)
GI50 [13]: 4.48 µM (inactive)
GI50 [14]: 2.43 µM (inactive)
GI50 [15]: 1.17 µM (inactive)
GI50 [18]: 12.2 µM (inactive)
GI50 [16]: 2.59 µM (inactive)
GI50 [17]: 7.29 µM (inactive)

NC1c2c(Cl)sc(Cl)c2C(=O)C1O (stereo unspecified)
GI50 [1]: 32.6 µM (inactive)
GI50 [2]: 18.2 µM (inactive)
GI50 [4]: 57.9 µM (inactive)
GI50 [5]: 23 µM (inactive)
GI50 [7]: 29.2 µM (inactive)
GI50 [8]: 15.8 µM (inactive)
GI50 [9]: 19.7 µM (inactive)
GI50 [10]: 18.2 µM (inactive)
GI50 [12]: 29.4 µM (inactive)
GI50 [13]: 25.9 µM (inactive)
GI50 [14]: 19 µM (inactive)
GI50 [15]: 31.9 µM (inactive)
GI50 [18]: 76.2 µM (inactive)
GI50 [16]: 12.8 µM (inactive)
GI50 [17]: 36.9 µM (inactive)
